How the values were obtained:
[1] = target: T1, D2 (hD2L receptor) (Homo sapiens, UniProt P14416); experiment: Radioligand binding assay, dopamine D2; settings: [3H] spiperone 1 nM; read-out: Binding affinity IC50 D2
T1 construct: purchased BioSignal Packard Inc., Montreal, Canada
Protocol: (§1) Radioligand binding assays for dopamine receptor family (D1, D2 and D3) were performed according to the protocols provided by the manufacturer of receptor membranes (BioSignal Packard Inc., Montreal, Canada). The radioligands used were [^3H] spiperone (for hD2L and hD3 receptors, 1 nM) and [^3H] YM-09151-2 (hD4.2 receptor, 0.06 nM). Briefly, the buffer used in the D1, D2 and D3 receptor binding assay was 50 mM Tris-HCl (pH 7.4), containing 10 mM MgCl2 and 1 mM EDTA, or 50 mM Tris-HCl (pH 7.4), containing 5 mM MgCl2, 5 mM EDTA, 5 mM KCl, 1.5 mM CaCl2 and 120 mM NaCl. For [^3H] YM-09151-2 receptor binding assays, 50 mM Tris-HCl (pH 7.4) containing 5 mM MgCl2, 5 mM EDTA, 5 mM KCl and 1.5 mM CaCl2, was used as a buffer. Nonspecific binding was determined with haloperidol (10 μM) for D2 and D3 and clozapine (10 μM) for D4 receptors.
(§2) Competition binding studies were carried out with 7-8 concentrations of the test compound run in duplicate tubes, and isotherms from three assays were calculated by computerized nonlinear regression analysis (GraphPad Prism Program, San Diego, […]) to yield median inhibitory concentration (IC50) values.

[2] = target: T2, D4 (hD4.2 receptor) (Homo sapiens, UniProt P21917, DEL265-296); experiment: Radioligand binding assay, dopamine D4; settings: [3H] YM-09151-2 0.06 nM; read-out: Binding affinity IC50 D4
T2 construct: purchased BioSignal Packard Inc., Montreal, Canada
T2 sequence (P21917 with tags, fused parts or gaps DEL265-296): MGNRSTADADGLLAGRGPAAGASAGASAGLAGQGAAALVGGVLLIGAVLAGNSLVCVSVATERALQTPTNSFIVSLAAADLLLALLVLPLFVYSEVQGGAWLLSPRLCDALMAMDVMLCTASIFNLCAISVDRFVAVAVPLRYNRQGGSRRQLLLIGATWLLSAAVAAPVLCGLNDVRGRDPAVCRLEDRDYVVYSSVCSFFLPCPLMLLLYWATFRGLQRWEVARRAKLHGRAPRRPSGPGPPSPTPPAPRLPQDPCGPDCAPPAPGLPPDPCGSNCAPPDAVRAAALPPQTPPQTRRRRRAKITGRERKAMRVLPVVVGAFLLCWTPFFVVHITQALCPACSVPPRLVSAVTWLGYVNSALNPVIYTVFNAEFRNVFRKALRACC
Protocol: as §1, §2

[3] = target: 5-HT7 (human recombinant receptor, CHO-K1) (Homo sapiens, UniProt P34969); experiment: Radioligand binding assay, 5-HT7
Chain of 5-HT7 (human recombinant receptor, CHO-K1) (P34969 whole entry): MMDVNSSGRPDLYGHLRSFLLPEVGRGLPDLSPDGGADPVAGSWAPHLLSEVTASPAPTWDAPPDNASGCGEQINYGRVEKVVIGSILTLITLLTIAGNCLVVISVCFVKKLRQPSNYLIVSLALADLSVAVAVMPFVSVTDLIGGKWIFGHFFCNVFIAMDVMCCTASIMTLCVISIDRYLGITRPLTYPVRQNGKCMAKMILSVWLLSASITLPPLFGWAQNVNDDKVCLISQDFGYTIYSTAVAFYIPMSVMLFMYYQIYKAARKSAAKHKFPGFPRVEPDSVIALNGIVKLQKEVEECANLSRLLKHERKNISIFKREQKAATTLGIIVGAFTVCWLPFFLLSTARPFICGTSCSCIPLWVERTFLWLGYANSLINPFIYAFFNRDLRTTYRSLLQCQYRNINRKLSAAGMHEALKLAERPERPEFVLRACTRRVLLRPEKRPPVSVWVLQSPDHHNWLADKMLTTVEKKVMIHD

[4] = target: T3, 5-HT1a (human recombinant receptor, CHO-K1) (Homo sapiens, UniProt P08908); experiment: Radioligand binding assay, 5-HT1a
T3 sequence (P08908 1-422): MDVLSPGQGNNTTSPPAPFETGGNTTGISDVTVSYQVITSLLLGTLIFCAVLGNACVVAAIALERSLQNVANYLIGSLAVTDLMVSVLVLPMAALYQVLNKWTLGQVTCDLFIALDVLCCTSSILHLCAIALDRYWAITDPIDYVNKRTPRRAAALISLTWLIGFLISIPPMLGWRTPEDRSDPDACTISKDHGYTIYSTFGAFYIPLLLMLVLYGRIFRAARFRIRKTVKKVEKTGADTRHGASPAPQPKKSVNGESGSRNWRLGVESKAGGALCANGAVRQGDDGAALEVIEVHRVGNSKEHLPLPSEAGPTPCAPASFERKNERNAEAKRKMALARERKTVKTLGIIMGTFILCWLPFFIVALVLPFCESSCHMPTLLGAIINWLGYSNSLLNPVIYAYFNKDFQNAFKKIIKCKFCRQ

[5] = target: 5-HT2a (human recombinant receptor, CHO-K1) (Homo sapiens, UniProt P28223); experiment: Radioligand binding assay, 5-HT2a
Chain of 5-HT2a (human recombinant receptor, CHO-K1) (P28223 whole entry): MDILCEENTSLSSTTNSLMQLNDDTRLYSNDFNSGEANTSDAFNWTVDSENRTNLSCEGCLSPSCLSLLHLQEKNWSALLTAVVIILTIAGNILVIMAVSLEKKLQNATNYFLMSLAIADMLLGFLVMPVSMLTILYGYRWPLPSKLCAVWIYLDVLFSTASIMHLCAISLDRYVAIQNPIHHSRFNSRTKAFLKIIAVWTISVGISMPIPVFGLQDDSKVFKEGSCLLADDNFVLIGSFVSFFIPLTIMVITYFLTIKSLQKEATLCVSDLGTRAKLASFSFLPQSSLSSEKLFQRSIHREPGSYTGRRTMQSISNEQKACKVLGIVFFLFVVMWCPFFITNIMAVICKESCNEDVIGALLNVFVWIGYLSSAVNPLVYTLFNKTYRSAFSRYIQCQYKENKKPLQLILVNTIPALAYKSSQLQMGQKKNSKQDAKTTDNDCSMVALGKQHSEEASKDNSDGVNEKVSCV

[6] = target: T4, 5-HT2c (human recombinant receptor, CHO-K1) (Homo sapiens, UniProt P28335); experiment: Radioligand binding assay, 5-HT2c
T4 sequence (P28335 33-458): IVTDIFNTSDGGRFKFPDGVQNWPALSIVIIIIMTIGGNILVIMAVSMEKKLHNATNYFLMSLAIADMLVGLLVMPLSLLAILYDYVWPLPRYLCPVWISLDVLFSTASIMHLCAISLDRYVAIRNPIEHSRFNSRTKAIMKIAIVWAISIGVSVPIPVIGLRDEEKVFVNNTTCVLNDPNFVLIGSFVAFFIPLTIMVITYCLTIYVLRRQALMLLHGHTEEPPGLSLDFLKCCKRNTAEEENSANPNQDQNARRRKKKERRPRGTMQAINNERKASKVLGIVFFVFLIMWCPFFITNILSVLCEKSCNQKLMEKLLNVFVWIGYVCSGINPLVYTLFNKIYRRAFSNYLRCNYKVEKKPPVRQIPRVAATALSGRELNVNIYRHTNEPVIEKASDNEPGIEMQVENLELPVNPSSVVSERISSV

[7] = target: D1 receptor (Homo sapiens, UniProt P21728); experiment: Radioligand binding assay, dopamine D1
Chain of D1 receptor (P21728 whole entry): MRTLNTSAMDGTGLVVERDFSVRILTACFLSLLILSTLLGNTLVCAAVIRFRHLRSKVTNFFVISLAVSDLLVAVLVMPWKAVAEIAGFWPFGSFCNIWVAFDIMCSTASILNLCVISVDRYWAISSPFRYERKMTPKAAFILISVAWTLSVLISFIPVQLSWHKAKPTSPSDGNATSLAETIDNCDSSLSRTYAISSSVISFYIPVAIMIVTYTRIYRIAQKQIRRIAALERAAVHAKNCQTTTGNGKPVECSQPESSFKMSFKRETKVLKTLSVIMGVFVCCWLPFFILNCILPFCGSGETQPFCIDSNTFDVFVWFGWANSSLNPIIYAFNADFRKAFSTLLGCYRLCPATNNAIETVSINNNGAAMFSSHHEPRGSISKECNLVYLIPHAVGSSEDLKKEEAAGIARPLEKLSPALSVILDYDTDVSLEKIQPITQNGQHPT

[8] = target: D3 (hD3 receptor) (Homo sapiens, UniProt P35462); experiment: Radioligand binding assay, dopamine D3
Chain of D3 (hD3 receptor) (P35462 whole entry): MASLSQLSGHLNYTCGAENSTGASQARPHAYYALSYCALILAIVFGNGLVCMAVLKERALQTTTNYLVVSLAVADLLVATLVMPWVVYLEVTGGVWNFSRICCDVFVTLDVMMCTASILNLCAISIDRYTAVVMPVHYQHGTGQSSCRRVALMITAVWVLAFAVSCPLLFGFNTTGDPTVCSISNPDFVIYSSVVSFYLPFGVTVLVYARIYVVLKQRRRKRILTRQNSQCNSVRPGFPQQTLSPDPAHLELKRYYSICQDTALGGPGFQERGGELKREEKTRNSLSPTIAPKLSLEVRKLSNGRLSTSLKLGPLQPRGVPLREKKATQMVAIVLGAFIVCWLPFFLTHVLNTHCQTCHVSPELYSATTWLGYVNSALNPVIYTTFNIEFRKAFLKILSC

[9] = target: human serotonin 5-HT6 receptor (Homo sapiens, UniProt P50406); experiment: [3H]LSD binding assay for cloned 5-HT6 receptors
Chain of human serotonin 5-HT6 receptor (P50406 whole entry): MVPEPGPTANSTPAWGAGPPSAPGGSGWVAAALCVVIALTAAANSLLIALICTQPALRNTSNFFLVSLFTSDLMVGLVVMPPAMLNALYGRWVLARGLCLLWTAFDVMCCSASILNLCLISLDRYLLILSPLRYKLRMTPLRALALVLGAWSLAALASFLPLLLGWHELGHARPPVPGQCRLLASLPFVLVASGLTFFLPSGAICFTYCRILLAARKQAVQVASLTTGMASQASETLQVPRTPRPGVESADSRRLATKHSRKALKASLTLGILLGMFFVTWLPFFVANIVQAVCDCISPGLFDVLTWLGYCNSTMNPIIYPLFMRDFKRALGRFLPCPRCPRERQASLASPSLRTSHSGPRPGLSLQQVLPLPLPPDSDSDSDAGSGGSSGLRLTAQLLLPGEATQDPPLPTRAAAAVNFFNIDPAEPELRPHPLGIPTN

[10] = target: T5, HeLa cells transfected with human 5-HT6 receptor (Homo sapiens, UniProt P50406); experiment: Serotonin-stimulated cAMP accumulation in HeLa cells (EIA); type: cell-based; settings: for effect on serotonin-stimulated cAMP accumulation (in words): HeLa cells, FIG. 1
T5 construct: expressed in transfected cells; host or cells: HeLa
T5 sequence (P50406 whole entry): as above

T1 sequence (P14416 whole entry): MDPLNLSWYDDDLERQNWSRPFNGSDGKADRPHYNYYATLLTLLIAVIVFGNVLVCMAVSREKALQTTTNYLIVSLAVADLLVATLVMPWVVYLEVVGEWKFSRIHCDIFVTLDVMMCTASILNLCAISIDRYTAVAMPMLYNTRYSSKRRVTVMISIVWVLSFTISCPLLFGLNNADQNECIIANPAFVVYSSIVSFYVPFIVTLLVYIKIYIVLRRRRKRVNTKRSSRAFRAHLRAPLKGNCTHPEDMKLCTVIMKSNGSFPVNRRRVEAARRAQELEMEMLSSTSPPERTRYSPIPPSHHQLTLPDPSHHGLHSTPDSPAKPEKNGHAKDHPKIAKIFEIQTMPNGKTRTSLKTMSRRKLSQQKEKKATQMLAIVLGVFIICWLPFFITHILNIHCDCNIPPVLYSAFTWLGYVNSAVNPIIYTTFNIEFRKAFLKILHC

Row | IC50 [7] | SMILES | IC50 [1] | IC50 [2] | IC50 [3] | IC50 [4] | IC50 [5] | IC50 [6] | IC50 [8] | IC50 [9] | antagonist activity compared with methiothepin [10] | effect on serotonin-stimulated cAMP accumulation (in words) [10] | melting point
1 | 8620 nM | C[C@@H](c1ccccc1)n1c(=O)c2c(N3CCNCC3)cc(Cl)cc2n(Cc2ccccc2)c1=O [Example 69, 1-benzyl-7-chloro-3-[(S)-1-phenyl-ethyl]-5-piperazin-1yl-1H-quinazoline-2,4-dione] | > 10000 nM | > 10000 nM | 7890 nM | 5870 nM | 293 nM | 429 nM | 1800 nM | 2.7 nM |  |  | 
2 |  | CN1CCN(c2cc(Cl)cc3c2c(=O)n(C)c(=O)n3Cc2ccccc2)CC1 [Example 1, 1-benzyl-7-chloro-3-methyl-5-(4-methyl-piperazin-1-yl)-1H-quinazoline-2,4-dione] |  |  |  |  |  |  |  | 3 nM | weaker antagonist activity than methiothepin | identified as 5-HT6 receptor antagonists | 173 to 175 °C
3 |  | CN1CCN(c2cc(Cl)cc3c2c(=O)n(Cc2ccc(F)cc2)c(=O)n3Cc2ccccc2)CC1 [Example 13, 1-benzyl-7-chloro-3-(4-fluoro-benzyl)-5-(4-methyl-piperazin-1-yl)-1H-quinazoline-2,4-dione] | > 10000 nM | > 10000 nM | 8640 nM | 2770 nM | 1390 nM | 1800 nM | 2380 nM | 1.5 nM | weaker antagonist activity than methiothepin | identified as 5-HT6 receptor antagonists | 110 to 114 °C
4 |  | CN1CCN(c2cc(Cl)cc3c2c(=O)n(Cc2ccc(Cl)cc2)c(=O)n3Cc2ccccc2)CC1 [Example 19, 1-benzyl-7-chloro-3-(4-chloro-benzyl)-5-(4-methyl-piperazin-1-yl)-1H-quinazoline-2,4-dione] | 7740 nM | > 10000 nM | 2210 nM | 3060 nM | 1100 nM | 321 nM | 1010 nM | 3.1 nM |  |  | 92 to 97 °C
5 |  | COc1ccccc1Cn1c(=O)c2c(N3CCN(C)CC3)cc(Cl)cc2n(Cc2ccccc2)c1=O [Example 25, 1-benzyl-7-chloro-3-(2-methoxy-benzyl)-5-(4-methyl-piperazin-1-yl)-1H-quinazoline-2,4-dione] | > 10000 nM | > 10000 nM | > 10000 nM | 7080 nM | 916 nM | 925 nM | 1330 nM | 1.9 nM |  |  | 91 to 96 °C
6 |  | CN1CCN(c2cc(Cl)cc3c2c(=O)n(Cc2ccccc2Br)c(=O)n3Cc2ccccc2)CC1 [Example 14, 1-benzyl-3-(2-bromo-benzyl)-7-chloro-5-(4-methyl-piperazin-1-yl)-1H-quinazoline-2,4-dione] | 3320 nM | > 10000 nM | 5940 nM | 1080 nM | 394 nM | 728 nM | 480 nM | 0.9 nM |  |  | 91 to 93 °C
7 |  | O=c1c2c(N3CCNCC3)cc(Cl)cc2n(Cc2ccccc2)c(=O)n1Cc1ccccc1Cl [Example 59, 1-benzyl-7-chloro-3-(2-chloro-benzyl)-5-piperazin-1-yl-1H-quinazoline-2,4-dione] | > 10000 nM | > 10000 nM | 7320 nM | 2160 nM | 132 nM | 198 nM | 381 nM | 1.7 nM |  |  | 120 to 125 °C
8 |  | CN1CCN(c2cc(Cl)cc3c2c(=O)n(Cc2ccccc2[N+](=O)[O-])c(=O)n3Cc2ccccc2)CC1 [Example 31, 1-benzyl-7-chloro-5-(4-methyl-piperazin-1-yl)-3-(2-nitro-benzyl)-1H-quinazoline-2,4-dione] | > 10000 nM | > 10000 nM | > 10000 nM | 2240 nM | 49 nM | 952 nM | 1240 nM | 1.4 nM |  |  | 164 to 169 °C
9 | > 10000 nM | C[C@@H](c1ccccc1)n1c(=O)c2c(N3CCN(C)CC3)cc(Cl)cc2n(Cc2ccccc2)c1=O [Example 41, 1-benzyl-7-chloro-5-(4-methyl-piperazin-1yl)-3-[(S)-1-phenyl-ethyl]-1H-quinazoline-2,4-dione] | 744 nM | > 10000 nM | 2740 nM | > 10000 nM | 160 nM | 865 nM | 362 nM | 5 nM |  |  | 
10 |  | CCCCCCCCn1c(=O)c2c(N3CCN(C)CC3)cc(Cl)cc2n(Cc2ccccc2)c1=O [Example 7, 1-benzyl-7-chloro-5-(4-methyl-piperazin-1-yl)-3-octyl-1H-quinazoline-2,4-dione] | 2760 nM | > 10000 nM | 2560 nM | 2160 nM | 1140 nM | 1710 nM | 606 nM | 1.5 nM |  |  | 78 to 80 °C
11 |  | CCCn1c(=O)c2c(N3CCN(C)CC3)cc(Cl)cc2n(Cc2ccccc2)c1=O [Example 3, 1-benzyl-7-chloro-5-(4-methyl-piperazin-1-yl)-3-propyl-1H-quinazoline-2,4-dione] | > 10000 nM | > 10000 nM | > 10000 nM | > 10000 nM | 718 nM | 3760 nM | 2110 nM | 2 nM |  |  | 120 to 121 °C

Row | SMILES | IC50 [7] | IC50 [1] | IC50 [2] | IC50 [3] | IC50 [4] | IC50 [5] | IC50 [6] | IC50 [8] | IC50 [9] | antagonist activity compared with methiothepin [10] | effect on serotonin-stimulated cAMP accumulation (in words) [10] | melting point
12 | O=c1c2c(N3CCNCC3)cc(Cl)cc2n(Cc2ccccc2)c(=O)n1CCc1ccccc1 [Example 70, 1-benzyl-7-chloro-3-phenethyl-5-piperazin-1-yl-1H-quinazoline-2,4-dione] | 5710 nM | 7440 nM | > 10000 nM | 7710 nM | 2910 nM | 401 nM | 752 nM | 2840 nM | 0.6 nM |  |  | 

From patent US20090203708A1, “NOVEL SUBSTITUTED-1-H-QUINAZOLINE-2,4-DIONE DERIVATIVES, PREPARATION METHOD THEREOF AND PHARMACEUTICAL COMPOSITION CONTAINING THE SAME” (Korea Research Institute of Chemical Technology, priority 2006, published 2009)
